According to patent US8247377B2, “Non-steroidal glucocorticoid inhibitors and their use in treating inflammation, allergy and auto-immune conditions” (Glaxo Group Limited, priority 2006, dated 2012):

System: NFκB
Assay: NFκB agonist assay in A549 SPAP cells;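 as to average maximum asymptote in the NFkB assay: maximum inhibition of the TNFα-induced NFκB-driven signal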
Format: cell-based
Conditions: Homo sapiens; for Emax: A549, A549 SPAP cells, >85% = full agonist, ≧20% = partial or full agonist, read-out: average maximum asymptote in the NFkB assay; for IC50: A549 SPAP cells, TNFα 3.2 ng/ml, read-out: pIC50 for the NFkB assay (converted)
Procedure, shortened: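 A549 cells stably carrying an ELAM/NFκB-driven SPAP reporter were pre-incubated 1 h at 37° C with compound, then stimulated with TNFα (3.2 ng/ml final) for 15 h. SPAP activity read colorimetrically with pNPP at 405 nm after ~1 h; pIC50 estimated from dose-response curves.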

CCN(CC(O)(CNC(=O)c1cnn(-c2ccc(F)cc2)c1N)C(F)(F)F)C(=O)c1c(C(F)(F)F)cccc1C(F)(F)F (racemic) [Example 27 (racemic), 5-amino-N-(2-{[{[2,6-bis(trifluoromethyl)phenyl]carbonyl}(ethyl)amino]methyl}-3,3,3-trifluoro-2-hydroxypropyl)-1-(4-fluorophenyl)-1H-pyrazole-4-carboxamide]
Emax: > 85% | IC50: < 1 µM

Nc1c(C(=O)NCC(O)(CNC(=O)c2c(Br)cccc2Br)C(F)(F)F)cnn1-c1ccc(F)cc1 (racemic) [Example 11 (racemic), 5-Amino-N-[2-({[(2,6-dibromophenyl)carbonyl]amino}methyl)-3,3,3-trifluoro-2-hydroxypropyl]-1-(4-fluorophenyl)-1H-pyrazole-4-carboxamide]
Emax: ≥ 20% | IC50: < 1 µM

CN(CC(O)(CNC(=O)c1cnn(-c2ccc(F)cc2)c1N)C(F)(F)F)C(=O)c1c(F)cccc1F (racemic) [Example 8 (racemic), 5-Amino-N-(2-{[[(2,6-difluorophenyl)carbonyl](methyl)amino]methyl}-3,3,3-trifluoro-2-hydroxypropyl)-1-(4-fluorophenyl)-1H-pyrazole-4-carboxamide]
Emax: > 85% | IC50: < 1 µM

CCN(CC(O)(CNC(=O)c1cnn(-c2ccc(F)cc2)c1N)C(F)(F)F)C(=O)c1c(F)cccc1Cl (racemic) [Example 4 (racemic), 5-Amino-N-(2-{[[(2-chloro-6-fluorophenyl)carbonyl](ethyl)amino]methyl}-3,3,3-trifluoro-2-hydroxypropyl)-1-(4-fluorophenyl)-1H-pyrazole-4-carboxamide]
Emax: > 85% | IC50: < 1 µM

Nc1c(C(=O)NCC(O)(CNC(=O)c2c(Br)cccc2C(F)(F)F)C(F)(F)F)cnn1-c1ccc(F)cc1 (racemic) [Example 45 (racemic), 5-Amino-N-{2-[({[2-bromo-6-(trifluoromethyl)phenyl]carbonyl}amino)methyl]-3,3,3-trifluoro-2-hydroxypropyl}-1-(4-fluorophenyl)-1H-pyrazole-4-carboxamide]
Emax: ≥ 20% | IC50: < 1 µM

Nc1c(C(=O)NCC(O)(CNC(=O)c2c(F)cccc2Br)C(F)(F)F)cnn1-c1ccc(F)cc1 (racemic) [Example 13 (racemic), 5-Amino-N-[2-({[(2-bromo-6-fluorophenyl)carbonyl]amino}methyl)-3,3,3-trifluoro-2-hydroxypropyl]-1-(4-fluorophenyl)-1H-pyrazole-4-carboxamide]
Emax: ≥ 20% | IC50: < 1 µM

Nc1c(C(=O)NCC(O)(CNC(=O)c2c(Cl)cccc2OC(F)F)C(F)(F)F)cnn1-c1ccc(F)cc1 (single isomer, unassigned) [Example 14 Enantiomer 1, 5-Amino-N-(2-{[({2-chloro-6-[(difluoromethyl)oxy]phenyl}carbonyl)amino]methyl}-3,3,3-trifluoro-2-hydroxypropyl)-1-(4-fluorophenyl)-1H-pyrazole-4-carboxamide]
Emax: ≥ 20% | IC50: < 1 µM

CN(CC(O)(CNC(=O)c1cnn(-c2ccc(F)cc2)c1N)C(F)(F)F)C(=O)c1c(Cl)cccc1Br (racemic) [Example 16 (racemic), 5-amino-N-(2-{[[(2-bromo-6-chlorophenyl)carbonyl](methyl)amino]methyl}-3,3,3-trifluoro-2-hydroxypropyl)-1-(4-fluorophenyl)-1H-pyrazole-4-carboxamide]
Emax: > 85% | IC50: < 1 µM

CCN(CC(O)(CNC(=O)c1cnn(-c2ccc(F)cc2)c1N)C(F)(F)F)C(=O)c1c(Cl)cccc1Br (racemic) [Example 24 (racemic), 5-amino-N-(2-{[[(2-bromo-6-chlorophenyl)carbonyl](ethyl)amino]methyl}-3,3,3-trifluoro-2-hydroxypropyl)-1-(4-fluorophenyl)-1H-pyrazole-4-carboxamide]
Emax: > 85% | IC50: < 1 µM

Nc1c(C(=O)NCC(O)(CNC(=O)c2c(Cl)cccc2Br)C(F)(F)F)cnn1-c1ccc(F)cc1 (racemic) [Example 12 (racemic), 5-Amino-N-[2-({[(2-bromo-6-chlorophenyl)carbonyl]amino}methyl)-3,3,3-trifluoro-2-hydroxypropyl]-1-(4-fluorophenyl)-1H-pyrazole-4-carboxamide]
Emax: ≥ 20% | IC50: < 1 µM

Nc1c(C(=O)NCC(O)(CNC(=O)c2c(Cl)cccc2C(F)(F)F)C(F)(F)F)cnn1-c1ccc(F)cc1 (single isomer, unassigned) [Example 44 Enantiomer 1, 5-Amino-N-{2-[({[2-chloro-6-(trifluoromethyl)phenyl]carbonyl}amino)methyl]-3,3,3-trifluoro-2-hydroxypropyl}-1-(4-fluorophenyl)-1H-pyrazole-4-carboxamide]
Emax: ≥ 20% | IC50: < 1 µM

CCN(CC(O)(CNC(=O)c1cnn(-c2cc(F)cc(F)c2)c1N)C(F)(F)F)C(=O)c1c(F)cccc1F (racemic) [Example 35 (racemic), 5-amino-1-(3,5-difluorophenyl)-N-(2-{[[(2,6-difluorophenyl)carbonyl](ethyl)amino]methyl}-3,3,3-trifluoro-2-hydroxypropyl)-1H-pyrazole-4-carboxamide]
Emax: > 85% | IC50: < 1 µM

CCN(CC(O)(CNC(=O)c1cnn(-c2ccc(F)cc2)c1N)C(F)(F)F)C(=O)c1c(F)cccc1F (racemic) [Example 5 (racemic), 5-Amino-N-(2-{[[(2,6-difluorophenyl)carbonyl](ethyl)amino]methyl}-3,3,3-trifluoro-2-hydroxypropyl)-1-(4-fluorophenyl)-1H-pyrazole-4-carboxamide]
Emax: > 85% | IC50: < 1 µM

Nc1c(C(=O)NCC(O)(CNC(=O)c2c(Cl)cccc2Cl)C(F)(F)F)cnn1-c1ccc(F)cc1 (racemic) [Example 3 (racemic), 5-Amino-N-[2-({[(2,6-dichlorophenyl)carbonyl]amino}methyl)-3,3,3-trifluoro-2-hydroxypropyl]-1-(4-fluorophenyl)-1H-pyrazole-4-carboxamide]
Emax: ≥ 20% | IC50: < 1 µM

CCN(CC(O)(CNC(=O)c1cnn(-c2ccccc2F)c1N)C(F)(F)F)C(=O)c1c(F)cccc1F (racemic) [Example 42 (racemic), 5-amino-N-(2-{[[(2,6-difluorophenyl)carbonyl](ethyl)amino]methyl}-3,3,3-trifluoro-2-hydroxypropyl)-1-(2-fluorophenyl)-1H-pyrazole-4-carboxamide]
Emax: > 85% | IC50: < 1 µM

Nc1c(C(=O)NCC(O)(CN(CCF)C(=O)c2c(Cl)cccc2OC(F)F)C(F)(F)F)cnn1-c1ccc(F)cc1 (racemic) [Example 31 (racemic), 5-amino-N-(2-{[({2-chloro-6-[(difluoromethyl)oxy]phenyl}carbonyl)(2-fluoroethyl)amino]methyl}-3,3,3-trifluoro-2-hydroxypropyl)-1-(4-fluorophenyl)-1H-pyrazole-4-carboxamide]
Emax: > 85% | IC50: < 1 µM

Nc1c(C(=O)NCC(O)(CN(CCF)C(=O)c2c(F)cccc2F)C(F)(F)F)cnn1-c1ccc(F)cc1 (racemic) [Example 17 (racemic), 5-amino-N-(2-{[[(2,6-difluorophenyl)carbonyl](2-fluoroethyl)amino]methyl}-3,3,3-trifluoro-2-hydroxypropyl)-1-(4-fluorophenyl)-1H-pyrazole-4-carboxamide]
Emax: > 85% | IC50: < 1 µM

CCN(CC(O)(CNC(=O)c1cnn(-c2c(F)cccc2F)c1N)C(F)(F)F)C(=O)c1c(F)cccc1F (racemic) [Example 37 (racemic), 5-amino-1-(2,6-difluorophenyl)-N-(2-{[[(2,6-difluorophenyl)carbonyl](ethyl)amino]methyl}-3,3,3-trifluoro-2-hydroxypropyl)-1H-pyrazole-4-carboxamide]
Emax: > 85% | IC50: < 1 µM

Nc1c(C(=O)NCC(O)(CNC(=O)c2c(Br)cccc2Br)C(F)(F)F)cnn1-c1ccc(F)cc1 (single isomer, unassigned) [Example 11 Enantiomer 1, 5-Amino-N-[2-({[(2,6-dibromophenyl)carbonyl]amino}methyl)-3,3,3-trifluoro-2-hydroxypropyl]-1-(4-fluorophenyl)-1H-pyrazole-4-carboxamide]
Emax: ≥ 20% | IC50: < 1 µM

Nc1c(C(=O)NCC(O)(CNC(=O)c2c(F)cccc2C(F)(F)F)C(F)(F)F)cnn1-c1ccc(F)cc1 (racemic) [Example 19 (racemic), 5-amino-1-(4-fluorophenyl)-N-{3,3,3-trifluoro-2-[({[2-fluoro-6-(trifluoromethyl)phenyl]carbonyl}amino)methyl]-2-hydroxypropyl}-1H-pyrazole-4-carboxamide]
Emax: ≥ 20% | IC50: < 1 µM

CCN(CC(O)(CNC(=O)c1cnn(-c2cccc(Cl)c2)c1N)C(F)(F)F)C(=O)c1c(F)cccc1F (racemic) [Example 41 (racemic), 5-amino-1-(3-chlorophenyl)-N-(2-{[[(2,6-difluorophenyl)carbonyl](ethyl)amino]methyl}-3,3,3-trifluoro-2-hydroxypropyl)-1H-pyrazole-4-carboxamide]
Emax: > 85% | IC50: < 1 µM

Nc1c(C(=O)NCC(O)(CNC(=O)c2c(Cl)cccc2Br)C(F)(F)F)cnn1-c1ccc(F)cc1 (single isomer, unassigned) [Example 12 Enantiomer 1, 5-Amino-N-[2-({[(2-bromo-6-chlorophenyl)carbonyl]amino}methyl)-3,3,3-trifluoro-2-hydroxypropyl]-1-(4-fluorophenyl)-1H-pyrazole-4-carboxamide]
Emax: ≥ 20% | IC50: < 1 µM

CCN(CC(O)(CNC(=O)c1cnn(-c2ccc(F)c(F)c2)c1N)C(F)(F)F)C(=O)c1c(F)cccc1F (racemic) [Example 33 (racemic), 5-amino-1-(3,4-difluorophenyl)-N-(2-{[[(2,6-difluorophenyl)carbonyl](ethyl)amino]methyl}-3,3,3-trifluoro-2-hydroxypropyl)-1H-pyrazole-4-carboxamide]
Emax: > 85% | IC50: < 1 µM
